In patent publication US20170119907A1, “Targeted Therapeutics” (MEDIVATION TECHNOLOGIES, INC., priority 2014, published 2017):

Legend:
ARH-77 cells [1] = assay: Binding of compounds to ARH-77 cells (Example B1a); assay type: cell-based; details: photomicrographs, FIG. 2A
human MSCs [2] = assay: Viability and proliferation of human MSCs in the presence of compound (Example B2); assay type: cell-based; details: concentrations of 20 μM or below
human MSCs [3] = assay: Binding to and staining of human MSCs; assay type: cell-based; details: photomicrographs, FIG. 4A
ARH-77 cells [4] = assay: Binding to ARH-77 cells (fluorescence staining); assay type: cell-based; details: 10 μM, 30 min; 530 nm/600 nm filter set; FIG. 2A
Experimental: ARH-77 cells (an EBV-transformed B lymphoblastoid cell line established from cells of a patient with plasma cell leukemia) were incubated as indicated with PBS or 10 μM Compound 4 for 30 min. Cells were washed twice with 1 mL PBS, and staining was detected using a 530 nm/600 nm filter set on a Molecular Imaging Gel Logic system.

human MSCs [5] = assay: Human MSC proliferation, CELLTITER GLO assay (ATP levels); assay type: cell-based; details: 24 h, various concentrations, compared with untreated cells; FIG. 3A
Experimental: This example reports the effects of 24 hour treatment with Compound 4 on viability and proliferation of human MSCs.
Cell proliferation was measured using the CELLTITER GLO® assay (Promega), which measures ATP levels. Cells (5×10^5) were incubated with various concentrations of Compound 4 for 24 h. Proliferation was compared to that of untreated cells. Proliferation values for 24 h were normalized to time=0 and compared with values for untreated cells.

human MSCs [6] = assay: Human MSC viability, trypan blue staining; assay type: cell-based; details: 30 min, concentrations 20 μM or lower, FIG. 3B
Experimental: Cell viability was measured by using trypan blue to stain dead cells. Cells (2×10^5) were incubated with various concentrations of Compound 4 for 30 min, and viable cells were counted and compared to the number of viable cells in an untreated sample. Values for treated cells were normalized to untreated cells.

human MSCs [7] = assay: Binding to human MSCs (visual inspection of staining); assay type: cell-based; details: 5 μM or 10 μM, 30 min; FIG. 4A
Experimental: Human MSCs were incubated without Compound 4 or with Compound 4 (5 μM or 10 μM) for 30 min and then washed twice with 1 mL PBS. Samples were visually inspected to determine staining

[8] = test system: partial thickness chondral defects in the medial femoral condyle; assay: Chondral defect model, retention of Compound 4-augmented MSCs (histological cell retention score); assay type: in vivo, sheep; details: for Cell Retention (average score, n = 5): score 0-2
Experimental: The capacity of ovine MSCs derived from bone marrow and augmented with Compound 4 to bind to lesions in cartilage in vivo was evaluated in a chondral defect model.
Bone marrow aspirate was collected from fifteen healthy nave female sheep and processed in vitro to attain a population of mesenchymal stem cells (MSCs) for each sheep created by expansion of adherent cells. MSCs were frozen at passage 1 (P1).
Two circular partial thickness chondral defects were surgically created bilaterally in the medial femoral condyle of each sheep, thereby creating four defects per sheep. Once the medial femoral condyle was surgically exposed, two partial thickness circular defects were created in the cartilage of the anterior aspect, separated by 2-3 mm. Each defect was created by penetrating the cartilage with a 7 mm diameter biopsy punch to delineate the margins followed by removal of cartilage within the defect margin with a scalpel to a depth of approximately 0.5 mm-0.8 mm without penetrating the surface of the calcified cartilage. Within the same animal, each defect received one of four experimental treatments: • a. D1: Empty Control: defect left unfilled; • b. D2: Vehicle Control: cells incubated in PBS delivered to the defect; • c. D3: 100 μM Compound 4 incubated in defect followed by delivery of cells to the defect; and • d. D4: Cells were incubated with 10 μM Compound 4 for 30 min and together they were delivered to defect.
Sheep were divided into three groups of 5 sheep. One group was sacrificed on day 1 after surgery, the second group was sacrificed on day 7, and the third group was sacrificed on day 14 after surgery.
The complete intact joint was harvested and transported to the laboratory. The joint was exposed, and defects were scored macroscopically prior to separating out bone blocks containing the defects with a band saw. Defects were further trimmed and individually separated using a fine ISOMET® saw prior to fixation in 10% neutral buffered formalin. Tissue was further trimmed for histological processing, fixed, and decalcified for at least one week.
As each sample completed decalcification, it was transferred to 40% EtOH until all samples were decalcified and the last sample had been in 40% EtOH for at least 24 hours.
Following decalcification, specimens were prepared for histology staining with safranin-orange, fast green and haematoxylin-eosin.
Histological Assessment of Compound 4-Augmented Cell Retention
Histological slides were stained with Haematoxylin & Eosin and Safranin Orange for evaluation of cell retention and the early stages of cartilage repair. Cell retention was assessed using the following scoring system: […]

[9] = test system: articular cartilage degeneration (MIA model); assay: Monosodium iodoacetate (MIA) model of articular cartilage degeneration, compound-incubated hMSCs; assay type: in vivo, Sprague Dawley rats; details: rat MIA 3 mg intra-articular; 4×10^5 hMSCs incubated in 10 μM compound injected day 7; evaluated day 28; FIG. 7
Experimental: 6 to 8 week old Sprague Dawley rats were anesthetized with 3% sevofluorane and injected in both the right and left knee intra-articularly with MIA (monosodium iodoacetate, Sigma Cat No I2512) at a dose of 3 mg in a volume of 50 pt. MIA was dissolved in sterile saline (0.9%). hMSCs (Lonza, Cat No PT-2501) were cultured in complete MSCCM™ mesenchymal stem cell culture medium (Lonza, Cat No PT-3238).
Seven days after the injection of MIA, 2-10 million hMSCs were collected and incubated for 20 min in 500 μL of 10 μM Compound 20 in PBS or in PBS alone (untreated). Cells were washed with PBS and counted.
Rats were again anesthetized with 3% sevofluorane. 4×10^5 hMSCs incubated in PBS or in Compound 20 were injected intraarticularly through the patellar ligament. Untreated hMSC were injected into the left knee joint, and Compound 20-stained hMSCs were injected into the right knee joint.
Twenty eight days after the injection of MIA, rats were euthanized, and femoral condyles were extracted for macroscopic evaluation.

Structure (SMILES) | binding to ARH-77 cells (ARH-77 cells [1]) | proliferation of human MSCs (human MSCs [2]; FIG. 3A) | viability of human MSCs relative to untreated human MSCs (human MSCs [2]; FIG. 3B) | binding to and staining of human MSCs (human MSCs [3]) | binding to ARH-77 cells (ARH-77 cells [4]) | Effect on human MSC proliferation (human MSCs [5]) | Effect on viability of human MSCs (human MSCs [6]) | Binding to human MSCs (visual staining) (human MSCs [7]) | Cell Retention (average score, n = 5) ([8]; D3: 100 μM incubated in defect followed by delivery of cells, Day 1) | Cell Retention (average score, n = 5) ([8]; D3: 100 μM incubated in defect followed by delivery of cells, Day 7) | Cell Retention (average score, n = 5) ([8]; D3: 100 μM incubated in defect followed by delivery of cells, Day 14) | Cell Retention (average score, n = 5) ([8]; D4: cells pre-incubated with 10 μM for 30 min, then delivered to defect, Day 1) | Cell Retention (average score, n = 5) ([8]; D4: cells pre-incubated with 10 μM for 30 min, then delivered to defect, Day 7) | Cell Retention (average score, n = 5) ([8]; D4: cells pre-incubated with 10 μM for 30 min, then delivered to defect, Day 14) | MSC retention (in words) ([8]; sheep chondral defect model, summary of Table B9) | Macroscopic evaluation of femoral condyle cartilage [9]
Cc1cc2nc3cc(C)c(NCCCCCCCCNc4cc5c(cc4C)nc4cc(C)c(N)cc4[n+]5-c4ccccc4)cc3[n+](-c3ccccc3)c2cc1N.[Cl-].[Cl-] [Compound 4, 7,7′-(octane-1,8-diylbis(azanediyl))bis(3-amino-2,8-dimethyl-5-phenylphenazin-5-ium) chloride] | binding | do not affect | do not affect | binds to and stains | binds to ARH-77 cells | does not affect human MSC proliferation | did not affect the viability | binds human MSCs | 0.75 | 0.75 | 1.2 | 0.4 | 1.0 | 1.25 | promotes MSC retention | –
Cc1cc2nc3cc(C)c(NCCCCCCNC(=O)c4ccc(-c5ccc(C(=O)NCCCCCCNc6cc7c(cc6C)nc6cc(C)c(N)cc6[n+]7-c6ccccc6)cc5)cc4)cc3[n+](-c3ccccc3)c2cc1N.[Cl-].[Cl-] [Compound 20, (3-amino-7-{[6-({4-[4-({6-[(7-amino-5-chloranuide-2,8-dimethyl-5-phenyl-5λ^6,10-phenazin-5-ylium-3-yl)amino]hexyl}carbamoyl)phenyl]phenyl}formamido)hexyl]amino}-2,8-dimethyl-5-phenyl-5λ^6,10-phenazin-5-ylium-5-e)chloranuide] | – | – | – | – | – | – | – | – | – | – | – | – | – | – | – | an improvement in the cartilage and surrounding bone area
